Measured values as given in patent publication US20240391931A1 (Bristol-Myers Squibb Company, priority 2021, published 2024).

Legend:
HER2YVMA = HER2YVMA (Homo sapiens, UniProt P04626, INS775YVMA); assay: Enzymatic assay HER2YVMA (method b); type: biochemical; design: purchased Viva biotech, Shanghai, China custom purification; settings: [HER2YVMA]=5 nM, [ATP]=25 μM, [Peptide 22]=1 μM
Summary of the method: (§1)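 Initial rates over 0–3600 s, read as substrate-to-product conversion by capillary electrophoresis, were converted to percent inhibition and fitted with a variable-slope curve to give IC50. Conditions: EGFR WT 2 nM with 1 mM ATP; HER2 YVMA 5 nM or HER2 WT 12.5 nM, each with 25 μM ATP. All used 1 μM Peptide 22 in pH 7.5 HEPES/Mn/Mg buffer.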

[1] = biological target: T1, HER2 wildtype (WT) protein (Homo sapiens, UniProt P04626); assay: HER2 signaling (pHER2 Tyr1248/total HER2 MSD) in BT474 cells; type: cell-based; settings: 1.5 hr compound, 1% FBS
T1 construct: BT474 and N87 cell lines which endogenously overexpress the HER2 wildtype (WT) protein; endogenous in cells; host or cells: BT474, N87
T1 sequence (P04626 23-1255): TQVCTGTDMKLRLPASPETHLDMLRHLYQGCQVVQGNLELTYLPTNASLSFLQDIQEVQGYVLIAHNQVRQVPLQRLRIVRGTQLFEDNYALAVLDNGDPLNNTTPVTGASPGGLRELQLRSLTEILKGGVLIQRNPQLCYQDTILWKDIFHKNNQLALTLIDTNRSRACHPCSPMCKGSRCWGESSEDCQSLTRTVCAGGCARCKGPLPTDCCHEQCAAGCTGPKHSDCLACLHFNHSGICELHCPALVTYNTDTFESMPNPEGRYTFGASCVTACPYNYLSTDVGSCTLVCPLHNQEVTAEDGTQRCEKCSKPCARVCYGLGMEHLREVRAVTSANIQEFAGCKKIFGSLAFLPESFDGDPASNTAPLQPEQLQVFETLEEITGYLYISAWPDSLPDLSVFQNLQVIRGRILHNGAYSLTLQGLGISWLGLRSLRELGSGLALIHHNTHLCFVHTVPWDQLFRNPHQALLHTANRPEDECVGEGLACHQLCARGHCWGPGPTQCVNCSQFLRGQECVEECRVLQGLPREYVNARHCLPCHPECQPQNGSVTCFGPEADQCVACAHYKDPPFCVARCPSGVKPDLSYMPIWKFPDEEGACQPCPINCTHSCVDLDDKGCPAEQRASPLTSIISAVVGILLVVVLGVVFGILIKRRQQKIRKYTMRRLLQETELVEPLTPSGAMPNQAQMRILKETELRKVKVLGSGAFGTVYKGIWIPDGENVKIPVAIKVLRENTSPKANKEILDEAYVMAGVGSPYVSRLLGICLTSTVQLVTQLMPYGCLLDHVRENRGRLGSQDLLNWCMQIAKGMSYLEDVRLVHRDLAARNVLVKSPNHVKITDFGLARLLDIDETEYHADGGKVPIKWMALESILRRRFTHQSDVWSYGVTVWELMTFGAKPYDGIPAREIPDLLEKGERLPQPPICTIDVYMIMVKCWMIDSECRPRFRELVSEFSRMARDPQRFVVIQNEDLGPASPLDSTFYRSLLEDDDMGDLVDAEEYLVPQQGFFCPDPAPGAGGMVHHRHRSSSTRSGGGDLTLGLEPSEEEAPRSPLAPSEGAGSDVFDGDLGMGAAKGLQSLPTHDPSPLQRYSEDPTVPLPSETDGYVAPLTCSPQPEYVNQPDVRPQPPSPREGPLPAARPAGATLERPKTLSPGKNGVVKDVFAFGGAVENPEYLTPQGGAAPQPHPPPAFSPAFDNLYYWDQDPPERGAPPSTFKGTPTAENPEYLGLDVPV
Summary of the method: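 BT474, N87 (HER2 WT) and NCI-H1781 (HER2 G776delinsVC) cells were treated for 1.5 h at 37° C in 1% FBS medium with compound at 0.0005–1.1 μM. pHER2 Tyr1248 was measured by MSD on whole-cell lysates and normalized to total HER2 as % DMSO. EC50 came from a variable-slope sigmoidal fit.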

EGFR WT = biological target: T2, EGFR WT (Homo sapiens, UniProt P00533); assay: Enzymatic assay EGFR WT (method c); type: biochemical; settings: [EGFR WT]=2 nM, [ATP]=1 mM, [Peptide 22]=1 μM
T2 construct: purchased Thermo Fisher, Carlsbad, CA ERBB1 PR7295B
T2 sequence (P00533 25-1210): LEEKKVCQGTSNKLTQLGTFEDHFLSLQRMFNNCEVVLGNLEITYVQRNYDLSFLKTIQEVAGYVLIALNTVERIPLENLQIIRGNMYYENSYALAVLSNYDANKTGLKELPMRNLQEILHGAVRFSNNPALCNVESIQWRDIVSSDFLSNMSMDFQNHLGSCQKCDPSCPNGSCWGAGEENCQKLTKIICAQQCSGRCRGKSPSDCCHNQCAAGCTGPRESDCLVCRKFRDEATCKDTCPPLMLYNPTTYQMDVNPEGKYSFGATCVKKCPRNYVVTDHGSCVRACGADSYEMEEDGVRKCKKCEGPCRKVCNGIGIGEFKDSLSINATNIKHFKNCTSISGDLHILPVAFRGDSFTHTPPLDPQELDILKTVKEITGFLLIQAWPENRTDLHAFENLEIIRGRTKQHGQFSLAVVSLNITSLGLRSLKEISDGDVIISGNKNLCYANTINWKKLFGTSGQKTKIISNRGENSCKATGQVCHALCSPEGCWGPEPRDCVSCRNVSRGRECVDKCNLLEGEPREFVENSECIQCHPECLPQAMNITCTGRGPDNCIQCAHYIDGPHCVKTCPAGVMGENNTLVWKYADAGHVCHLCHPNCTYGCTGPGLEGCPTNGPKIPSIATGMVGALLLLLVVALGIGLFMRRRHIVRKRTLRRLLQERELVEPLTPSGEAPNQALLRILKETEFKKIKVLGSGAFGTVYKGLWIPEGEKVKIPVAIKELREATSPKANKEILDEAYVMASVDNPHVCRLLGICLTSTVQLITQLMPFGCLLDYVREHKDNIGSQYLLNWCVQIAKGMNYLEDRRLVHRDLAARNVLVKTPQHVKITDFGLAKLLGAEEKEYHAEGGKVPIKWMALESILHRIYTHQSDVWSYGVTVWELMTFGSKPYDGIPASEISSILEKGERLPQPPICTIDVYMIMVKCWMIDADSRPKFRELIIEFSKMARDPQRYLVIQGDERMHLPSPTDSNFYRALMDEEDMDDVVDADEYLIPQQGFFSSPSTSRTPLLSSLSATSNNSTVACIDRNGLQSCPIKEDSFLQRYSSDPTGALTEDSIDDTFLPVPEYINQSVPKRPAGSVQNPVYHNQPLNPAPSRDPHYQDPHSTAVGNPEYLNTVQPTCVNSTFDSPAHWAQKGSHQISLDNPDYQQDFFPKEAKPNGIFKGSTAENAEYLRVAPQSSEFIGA
Summary of the method: as §1

HER2 WT = biological target: T3, HER2 WT (Homo sapiens, UniProt P04626); assay: Enzymatic assay HER2 WT (method a); type: biochemical; settings: [HER2 WT]=12.5 nM, [ATP]=25 μM, [Peptide 22]=1 μM
T3 construct: purchased ProQinase, Freiburg, Germany ERBB2 0108-0000-1
T3 sequence (P04626 23-1255): as the sequence (P04626 23-1255) above
Summary of the method: as §1

Chain of HER2YVMA (P04626 with tags, fused parts or gaps INS775YVMA): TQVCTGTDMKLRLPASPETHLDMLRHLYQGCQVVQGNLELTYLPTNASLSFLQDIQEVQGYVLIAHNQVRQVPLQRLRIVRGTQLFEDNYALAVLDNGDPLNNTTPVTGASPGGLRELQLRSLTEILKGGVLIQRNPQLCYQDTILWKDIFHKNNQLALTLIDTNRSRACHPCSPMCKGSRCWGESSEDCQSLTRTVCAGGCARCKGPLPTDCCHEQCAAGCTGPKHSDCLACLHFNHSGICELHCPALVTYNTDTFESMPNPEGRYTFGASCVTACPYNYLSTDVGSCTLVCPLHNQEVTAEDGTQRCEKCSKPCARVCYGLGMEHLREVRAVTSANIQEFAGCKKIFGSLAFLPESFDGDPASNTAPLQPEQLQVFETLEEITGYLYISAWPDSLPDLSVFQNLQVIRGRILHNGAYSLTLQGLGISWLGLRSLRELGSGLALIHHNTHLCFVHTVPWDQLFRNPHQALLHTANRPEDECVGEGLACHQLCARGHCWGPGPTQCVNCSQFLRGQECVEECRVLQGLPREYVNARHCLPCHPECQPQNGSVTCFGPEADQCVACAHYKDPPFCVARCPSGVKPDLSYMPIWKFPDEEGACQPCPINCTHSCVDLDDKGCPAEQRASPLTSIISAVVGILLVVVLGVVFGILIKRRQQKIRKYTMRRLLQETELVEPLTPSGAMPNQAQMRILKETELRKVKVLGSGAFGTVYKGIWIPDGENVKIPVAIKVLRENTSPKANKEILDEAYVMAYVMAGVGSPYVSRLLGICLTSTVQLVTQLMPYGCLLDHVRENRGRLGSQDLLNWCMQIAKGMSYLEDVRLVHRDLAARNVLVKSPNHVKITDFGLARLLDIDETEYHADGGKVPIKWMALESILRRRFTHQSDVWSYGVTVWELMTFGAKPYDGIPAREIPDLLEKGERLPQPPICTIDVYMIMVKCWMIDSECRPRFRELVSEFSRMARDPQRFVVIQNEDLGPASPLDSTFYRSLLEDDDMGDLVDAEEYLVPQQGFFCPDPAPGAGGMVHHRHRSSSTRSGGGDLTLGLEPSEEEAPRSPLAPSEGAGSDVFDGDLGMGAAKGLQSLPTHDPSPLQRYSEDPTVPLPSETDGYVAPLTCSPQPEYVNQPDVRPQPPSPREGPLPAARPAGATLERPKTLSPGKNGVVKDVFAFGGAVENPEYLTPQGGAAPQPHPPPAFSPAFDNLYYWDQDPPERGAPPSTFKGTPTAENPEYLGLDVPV

SMILES | IC50 (HER2YVMA) [nM] | EC50 [1] [nM] | IC50 (EGFR WT) [nM] | IC50 (HER2 WT) [nM]
Cc1ccc(Oc2ccc(Nc3ncnc4sc5c(c34)CCN(C(=O)/C=C/CN3CCO[C@@H](CO)C3)C5)cc2C)cn1 [Compound 144] | 100 to 1000 | < 100 | > 10000 | < 100
Cc1ccc(Oc2ccc(Nc3ncnc4sc5c(c34)CCN(C(=O)/C=C/CN3CCCC(F)(CO)C3)C5)cc2C)cn1 (stereo not drawn) [Compound 150] | < 100 | < 100 | 1000 to 10000 | < 100
Cc1ccc(Oc2ccc(Nc3ncnc4sc5c(c34)CCN(C(=O)/C=C/CN3CC(F)(CO)C3)C5)cc2C)cn1 [Compound 151] | < 100 | < 100 | > 10000 | < 100
COc1ccc(Oc2ccc(Nc3ncnc4sc5c(c34)C(C)CN(C(=O)/C=C/CN(C)C)C5)cc2C)cn1 (stereo not drawn) [Compound 152, (E)-4-(dimethylamino)-1-(4-((4-((6-methoxypyridin-3-yl)oxy)-3-methylphenyl)amino)-5-methyl-5,8-dihydropyrido[4′,3′:4,5]thieno[2,3-d]pyrimidin-7(6H)-yl)but-2-en-1-one] | < 100 | < 100 | > 10000 | < 100
Cc1ccc(Oc2ccc(Nc3ncnc4sc5c(c34)CN(C(=O)/C=C/CN(C)C)C5C)cc2C)cn1 (stereo not drawn) [Compound 153, (E)-4-(dimethylamino)-1-(7-methyl-4-((3-methyl-4-((6-methylpyridin-3-yl)oxy)phenyl)amino)-5,7-dihydro-6H-pyrrolo[3′,4′:4,5]thieno[2,3-d]pyrimidin-6-yl)but-2-en-1-one] | < 100 | < 100 | > 10000 | 100 to 1000
Cc1ccc(Oc2ccc(Nc3ncnc4sc5c(c34)CCN(C(=O)/C=C/CN3CCC[C@@H](CO)C3)C5)cc2C)cn1 [Compound 154] | < 100 | < 100 | > 10000 | < 100
Cc1ccc(Oc2ccc(Nc3ncnc4sc5c(c34)CCN(C(=O)/C=C/CN3CCC[C@H](CO)C3)C5)cc2C)cn1 [Compound 155] | < 100 | < 100 | > 10000 | < 100
Cc1cc(Nc2ncnc3sc4c(c23)CCN(C(=O)/C=C/CN(C)C)C4)ccc1Oc1ccc(N(C)C)nc1 [Compound 158, (E)-4-(dimethylamino)-1-(4-((4-((6-(dimethylamino)pyridin-3-yl)oxy)-3-methylphenyl)amino)-5,8-dihydropyrido[4′,3′:4,5]thieno[2,3-d]pyrimidin-7(6H)-yl)but-2-en-1-one] | < 100 | < 100 | 1000 to 10000 | < 100
COc1ccc(Oc2ccc(Nc3ncnc4sc5c(c34)CCN(C(=O)/C=C/CN(C)C(C)(C)C)C5)cc2C)cn1 [Compound 163] | < 100 | < 100 | > 10000 | < 100
COc1ccc(Oc2ccc(Nc3ncnc4sc5c(c34)CCN(C(=O)/C=C/CN3CCOCC3)C5)cc2C)cn1 [Compound 164] | 100 to 1000 | < 100 | > 10000 | 100 to 1000
Cc1ccc(Oc2ccc(Nc3ncnc4sc5c(c34)CCN(C(=O)/C=C/CN(C)C)CC5)cc2Cl)cn1 [Compound 167, (E)-1-(4-((3-Chloro-4-((6-methylpyridin-3-yl)oxy)phenyl)amino)-8,9-dihydro-5H-pyrimido[5′,4′:4,5]thieno[2,3-d]azepin-7(6H)-yl)-4-(dimethylamino)but-2-en-1-one] | 100 to 1000 | < 100 | > 10000 | 100 to 1000
Cc1cc(Nc2ncnc3sc4c(c23)CCN(C(=O)/C=C/CN(C)C)CC4)ccc1Oc1ccn2ncnc2c1 [Compound 168] | 100 to 1000 | < 100 | > 10000 | < 100
